Earlier results, collected in US10314839B2, “Diversion-resistant opioid formulations” (priority 2014, dated 2019).
Structures can show the parent of a compound that is named as a salt.

Key:
opioid receptor [1] = conditions: after oral doses
[2] = hydrochloride salt
[3] = system: mu over delta receptor sub-types
opioid receptor [4] = system: opioid receptor

SMILES: C[C@H]1[C@H]2Cc3ccc(O)cc3[C@]1(C)CCN2CC1CC1 [cyclazocine]
- Duration of action (opioid receptor [1]): ~24 h

SMILES: O=C1CC[C@@]2(O)[C@H]3Cc4ccc(O)c5c4[C@@]2(CCN3CC2CC2)[C@H]1O5 [hydrochloride salt of naltrexone, naltrexone]
- Solubility in water [2]: up to 100 mg/mL

SMILES: O=C1CC[C@@]2(O)[C@H]3Cc4ccc(O)c5c4[C@@]2(CCN3CC2CC2)[C@H]1O5 [naltrexone]
- Duration of action (opioid receptor [1]): ~24 h
- Protein binding (in vivo): approximately 21%
- Oral bioavailability (oral administration): 5-40%
- Preferential blocking action between receptor sub-types [3]: strong preferential blocking action against mu over delta receptor sub-types
- Opioid agonist effects / properties (opioid receptor [4]): no opioid agonist properties
